From patent publication US12352767B2, “Method of treating cognitive decline associated with neurological diseases based on a decrease in FLT4 expression or activity” (University of Virginia Patent Foundation, priority 2018, dated 2025)
“Also recorded” adds a separate entry of the source.

Columns and labels:
[1] = tested on: meningeal lymphatic vessels; assay: Meningeal whole-mount immunostaining (LYVE-1/CD31): lymphatic vessel area and diameter, blood vessel coverage
Experimental: Selective ablation of the meningeal lymphatic vessels was achieved by i.c.m. injection and transcranial photoconversion of Visudyne® (verteporfin for injection, Valeant Ophtalmics). Visudyne was reconstituted following manufacturer instructions and 5 μL was injected i.c.m. following the previously described procedure. […] Each spot was irradiated with a light dose of 50 J/cm^2 at an intensity of 600 mW/cm^2 for a total of 83 s. Controls were injected with the same volume of Visudyne (without the photoconversion step) or sterile saline plus photoconversion (vehicle/photoconversion). The scalp skin was then sutured, the mice were subcutaneously injected with ketoprofen (2 mg/Kg) and allowed to recover on a heating pad until fully awake.
A hydrogel of 1.4% hyaluronic acid and 3% methylcellulose alone (vehicle) or with 200 ng/mL of encapsulated human VEGF-C (PeproTech) or VEGF-C156S (R&D Systems) was prepared as described elsewhere^49. Briefly, lyophilized, sterile methylcellulose (4000 cP, Sigma-Aldrich) and sterile hyaluronic acid (1500-1800 kDa, Sigma-Aldrich) were sequentially dissolved in sterile 0.1 M phosphate buffered saline (PBS) at 4° C. overnight. Lyophilized VEGF-C or VEGF-C156S were resuspended as particulate at 2000 ng/mL in 0.5% sterile methylcellulose in PBS. The particulate solution, or vehicle 0.5% methylcellulose, was mixed into the hydrogel pre-solution at 1:10, and loaded into a syringe for gelation at 37° C. […] The hydrogels were prepared on the day of the experiment and kept warm inside the individual syringes until applied onto the mouse's skull. […] An incision was made in the scalp skin and the skull was thinned at the junction of all sinuses and above the transverse sinus. The shear-thinning properties of the polymers allowed the extrusion of 100 μL of each hydrogel solution from the syringe into the thinned skull surface. The scalp skin was then sutured on top of the solidified hydrogel, the mice were subcutaneously injected with ketoprofen (2 mg/Kg) and allowed to recover on a heating pad until fully awake.
Mice were given a lethal dose of anesthetics by intraperitoneal (i.p.) injection of Euthasol (10% v/v in saline). When needed, CSF was collected from the cisterna magna using a 0.5 mm diameter borosilicate glass pipette with internal filament and immediately stored at −80° C. Mice were then transcardially perfused with ice cold PBS with heparin (10 U/mL). Deep cervical lymph nodes were dissected and drop fixed in 4% paraformaldehyde (PFA) for 12 hours at 4° C. After stripping the skin and muscle from the bone the head was collected and drop fixed in 4% PFA. […] The brains were kept in 4% PFA for additional 24 hours (48 hours in total). […]

[2] = tested on: brain/meningeal vasculature; assay: Photoacoustic imaging of brain/meningeal blood flow and oxygenation; type: in vivo; conditions: 5xFAD mice, 1 week after Visudyne/photoconversion
Source text: Adult mice were maintained under anesthesia with 1.5% isoflurane and at a constant body temperature with the aid of a heating pad. A surgical incision was made in the scalp and the fascia was removed to expose the skull. One day prior to the imaging, the skull over the region of interest was thinned to the desired thickness (˜100 μm). Mice were then imaged by multi-parametric photoacoustic microscopy, which is capable of simultaneously image oxygen saturation of hemoglobin (sO2) and blood flow speed as described previously^50. Using the oxy-hemoglobin and deoxy-hemoglobin values, recorded using two nanosecond-pulsed lasers (532 and 559 nm), it is possible to compute the final sO2. Correlation analysis of adjacent A-line signals allows the quantification of blood flow speed within individual vessels. By segmenting major vessels within the region of interest, average values of the blood flow speed and sO2 were extracted for quantitative analysis.

verteporfin [Visudyne]
ablation of meningeal lymphatics (LYVE-1+ lymphatic vessels) ([1]; Visudyne 5 μL i.c.m. + transcranial photoconversion, adult mice): loss of meningeal vessel staining; also recorded: effective ablation of meningeal lymphatics | duration of meningeal lymphatic ablation ([1]; Visudyne i.c.m. + transcranial photoconversion): at least 7 days | blood flow in brain/meninges [2]: no differences; also recorded: did not affect | blood oxygenation in brain/meninges [2]: no differences; also recorded: did not affect
